Experimental data as given in patent US10721967B2, “Vaporizing devices and methods for delivering a compound using the same” (Altria Client Services LLC, priority 2016, dated 2020).
Like-named read-outs stand apart in the source and are kept apart here.

Tests used:
[1] = Short Blessed Test cognitive status evaluation; type: in vivo, human; conditions: for SET 0 min (Short Blessed Test score): 0 min (prior to inhalation); for SET 0 min (Short Blessed Test score) / SET 30 min (Short Blessed Test score) / SET 120 min (Short Blessed Test score): mean; for SET 30 min (Short Blessed Test score): 30 min after inhalation
Procedure: (§1) Blood pressure, pulse rate, and oxygen saturation were also recorded at baseline, 30, 60, 90, and 120 minutes post inhalation. A cognitive test was conducted using the Short Blessed Test prior to the experiment at 30, 60 minutes after inhalation and at the end of the experiment.
(§2) The primary outcome of the study was to characterize the inter-individual variability of Δ^9-THC during the absorption phase. The secondary outcome included (a) monitoring adverse effects, (b) blood pressure, and heart rate; and (c) monitoring the response of single-ascending dose with the use of the study device. In addition, the influence of the use of the trial device on the cognitive status of the subject was assessed. A Short Blessed Test cognitive test^19 was used for the purpose of the trial.
The Short Blessed Test, a six-item test, was used as a diagnostic tool enabling the cognitive status evaluation of the volunteers. Each item was scored and total scores were calculated on the following cut off points: Normal or minimally impaired: 0-8, Moderately impaired: 9-19, Severely impaired: 20-33.

[2] = intravenous THC administration, cited from earlier work
[3] = Single-ascending dose pharmacokinetic study: plasma THC after a 3 second inhalation from the vaporizer device; type: in vivo, human; conditions: for AUC(0-inf) / Tmax / Cmax: human, plasma, inhaled, single inhalation, mean ± SD; for Cmax: read-out: Δ^9-THC Cmax
Procedure: A study was conducted to investigate the pharmacokinetics, efficacy, safety, and ease of use of a vaporizer device of the present technology for treating disorders in humans. Volunteers were recruited for participation in the study and met the following inclusion criteria: (a) age >30 and <70 years; (b) no known medical problems; and (c) if applicable, negative urine pregnancy test (β human […] gonadotropin pregnancy test). Exclusion criteria were the presence of (a) significant cardiac or pulmonary disease, (b) history of a psychotic or anxiety disorder, (c) pregnancy, pregnancy attempt or breastfeeding, (d) presence of a neuropathic or non-neuropathic pain disorder, (e) low systolic blood pressure, ([…]) (f) diabetes (g) first degree family history of psychotic or anxiety disorder, (h) history of drug addiction, (i) history of drug misuse, (j) concurrent use the following drugs: rifampicin, rifabutin, carbamazepine, or phenobarbital, primidone, (k) using the following plants: Hypericum perforatum, troglitazone, (l) alcohol consumption up to 12 hours prior to the study, (m) abnormal parameters such as heart rate above 100 BPM, blood pressure below 90 mm Hg (systolic), saturation below 91 percent, (n) recreational Cannabis use up to 72 hours before the study, (o) any chronic use of drugs, and (q) age less than 30 or more than 70.
The participants were divided into four dose related groups each group included 3 volunteers. After 3 successful training inhalations, each participant inhaled 3 seconds of a single dose. Dose groups were 10±0.1 mg, 15±0.1 mg, 20±0.1 mg, 25±0.1 mg of THC.
Blood samples were drawn immediately before and at 2, 3, 4, 10, 30 minutes after inhalation for monitoring of plasma levels of THC and its active metabolite Δ^9 Carboxy-THC. The blood was collected in 13×75 mm purple-top Vacutainer tubes containing EDTA. Samples were kept on ice and centrifuged within 30 minutes. Plasma samples were aliquoted into 3.6-mL polypropylene Nunc cryotubes (Thomas Scientific, NJ, USA), stored frozen at −20° C., and analyzed within 6 weeks. The cannabinoid analysis was performed at Pactox (Pacific Toxicology Laboratories) Labs by multidimensional gas chromatography mass spectrometry method.
The study device was as described above in connection with the figures and designed to vaporize up to 80 doses of processed cannabis fibs, resulting in the pulmonary delivery of compounds. The inhaler consisted of a multi-dose cartridge, indication light, and power switch. The cartridge was preloaded with multiple pre-weighed 10.0±0.1 mg, 15.0±0.1 mg, 20.0±0.1 mg, and 25.0±0.1 mg doses of processed cannabis flos. The vaporization process was segmental and triggered by the volunteer pressing the operating button. The segmental evaporation process is aimed at turning THCA into THC^1 and is done by: (1) stage I—heating the material to 100° C. for 9 seconds; (2) stage II—heating the material to 150° C. for 9 seconds; (3) stage III—heating the material to 190° C. to 200° C. (evaporation temperature) for the 3 seconds of inhalation. The transition to the next dose/inhalation is performed by using a mechanical rotation wheel. The device engages automatic thermal control that ensures a complete, high-efficiency delivery of carmabinoid vapors to the lungs. The device allowed for “single inhalation” dose resolution, instantaneous administration, and required no preprocessing or any subject intervention other than the inhalation itself.
The cannabis flowers used in the study were of the Alaska strain provided by “Tikun Olam.” This strain is a hybrid of 70% sativa and 30% indica strains. This strain consists of 20-22% THC and 0% CBD. The processed cannabis flowers used in this study were tested for THC by modified gas-chromatography method without derivatization 1.8 resulting in Δ^9-THC content of 20.08%. The flowers were loaded into the inhaler so as to retain the natural cannabis compounds in. their raw form. […]

[4] = Blood pressure, pulse rate and oxygen saturation after inhalation; type: in vivo, human; conditions: for DBP (diastolic blood pressure) / HR (heart rate) / SBP (systolic blood pressure) / SO2 (blood oxygen saturation): mean value
Procedure: as §1, §2

[5] = ascending doses 10-25 mg, inhalation

Q: Which “SET 0 min (Short Blessed Test score)” value ([1]; 10 mg dose group) does the source give for `CCCCCc1cc(O)c2c(c1)OC(C)(C)[C@@H]1CCC(C)=C[C@@H]21` [THC, tetrahydrocannabinol] here?
A: 0.66 ± 0.94

Q: And the “SET 30 min (Short Blessed Test score)” value ([1]; 10 mg dose group)?
A: 2.33 ± 3.29

Q: And the “SET 120 min (Short Blessed Test score)” value ([1]; 10 mg dose group)?
A: 2.66 ± 0.47

Q: What about the “SET 0 min (Short Blessed Test score)” value ([1]; 15 mg dose group) of the same compound?
A: 0

Q: And the “SET 30 min (Short Blessed Test score)” value ([1]; 15 mg dose group)?
A: 1.33 ± 1.88

Q: What about the “SET 120 min (Short Blessed Test score)” value ([1]; 15 mg dose group) of the same compound?
A: 3 ± 0.81

Q: And the “SET 0 min (Short Blessed Test score)” value ([1]; 20 mg dose group)?
A: 2 ± 1.63

Q: What about the “SET 30 min (Short Blessed Test score)” value ([1]; 20 mg dose group) of the same compound?
A: 0.66 ± 0.94

Q: And the “SET 120 min (Short Blessed Test score)” value ([1]; 20 mg dose group)?
A: 0.66 ± 0.94

Q: And the “SET 0 min (Short Blessed Test score)” value ([1]; 25 mg dose group)?
A: 2 ± 2.82

Q: What about the “SET 30 min (Short Blessed Test score)” value ([1]; 25 mg dose group) of the same compound?
A: 0

Q: And the “SET 120 min (Short Blessed Test score)” value ([1]; 25 mg dose group)?
A: 0

Q: What about the “cognitive impairment (Short Blessed Test)” value ([1]; all volunteers, 0-8 normal or minimally impaired) of the same compound?
A: minimal cognitive impairment

Q: What about the “Cmax of Δ^9-THC” value ([2]; Reference 1) of the same compound?
A: 43.8 ng/mL

Q: And the “Cmax of Δ^9-THC” value ([2]; Reference 2)?
A: 32.8 ng/mL

Q: What about the “Cmax of Δ^9-THC” value ([2]; Reference 3) of the same compound?
A: 23.8 ng/mL

Q: What about the “change in time needed to reach maximum concentration with ascending doses” value [3, 5] of the same compound?
A: no significant change

Q: What about the “change of AUC with ascending doses” value [3, 5] of the same compound?
A: same linear increase

Q: What about the “change of maximum concentration with ascending doses” value [3, 5] of the same compound?
A: linear increase

Q: What about the AUC(0-inf) ([3]; 0.1 mg, Group IV, 25 ± 0.1 mg) of the same compound?
A: 16.2 ng·h/mL

Q: And the Tmax ([3]; 0.1 mg, Group IV, 25 ± 0.1 mg)?
A: 3 min

Q: And the Cmax ([3]; 0.1 mg, Group IV, 25 ± 0.1 mg)?
A: 88.6 ± 14.8 ng/mL

Q: What about the AUC(0-inf) ([3]; Group I, 10 ± 0.1 mg) of the same compound?
A: 7.36 ng·h/mL

Q: What about the Tmax ([3]; Group I, 10 ± 0.1 mg) of the same compound?
A: 3.67 min

Q: What about the Cmax ([3]; Group I, 10 ± 0.1 mg) of the same compound?
A: 35.4 ± 5.97 ng/mL

Q: What about the AUC(0-inf) ([3]; Group II, 15 ± 0.1 mg) of the same compound?
A: 10.4 ng·h/mL

Q: And the Tmax ([3]; Group II, 15 ± 0.1 mg)?
A: 3.33 min

Q: And the Cmax ([3]; Group II, 15 ± 0.1 mg)?
A: 51.5 ± 13.8 ng/mL

Q: What about the AUC(0-inf) ([3]; Group III, 20 ± 0.1 mg) of the same compound?
A: 11.6 ng·h/mL

Q: And the Tmax ([3]; Group III, 20 ± 0.1 mg)?
A: 2.67 min

Q: What about the Cmax ([3]; Group III, 20 ± 0.1 mg) of the same compound?
A: 72.4 ± 15.9 ng/mL

Q: And the “DBP (diastolic blood pressure)” value ([4]; 10 mg dose group)?
A: 69.46 ± 7.86 mmHg

Q: And the “HR (heart rate)” value ([4]; 10 mg dose group)?
A: 71.66 ± 10.14

Q: And the “SBP (systolic blood pressure)” value ([4]; 10 mg dose group)?
A: 113.4 ± 10.23 mmHg

Q: What about the “SO2 (blood oxygen saturation)” value ([4]; 10 mg dose group) of the same compound?
A: 99.93 ± 0.25%

Q: And the “DBP (diastolic blood pressure)” value ([4]; 15 mg dose group)?
A: 63.85 ± 9.78 mmHg

Q: And the “HR (heart rate)” value ([4]; 15 mg dose group)?
A: 79 ± 13.37

Q: What about the “SBP (systolic blood pressure)” value ([4]; 15 mg dose group) of the same compound?
A: 114.93 ± 6.88 mmHg

Q: What about the “SO2 (blood oxygen saturation)” value ([4]; 15 mg dose group) of the same compound?
A: 100%

Q: What about the “DBP (diastolic blood pressure)” value ([4]; 20 mg dose group) of the same compound?
A: 71.78 ± 14.95 mmHg

Q: What about the “HR (heart rate)” value ([4]; 20 mg dose group) of the same compound?
A: 68.35 ± 5.83

Q: What about the “SBP (systolic blood pressure)” value ([4]; 20 mg dose group) of the same compound?
A: 120.14 ± 28.03 mmHg

Q: And the “SO2 (blood oxygen saturation)” value ([4]; 20 mg dose group)?
A: 99.92 ± 0.26%

Q: And the “DBP (diastolic blood pressure)” value ([4]; 25 mg dose group)?
A: 80.57 ± 8.92 mmHg

Q: And the “HR (heart rate)” value ([4]; 25 mg dose group)?
A: 77.57 ± 17.74

Q: What about the “SBP (systolic blood pressure)” value ([4]; 25 mg dose group) of the same compound?
A: 130 ± 16.62 mmHg

Q: What about the “SO2 (blood oxygen saturation)” value ([4]; 25 mg dose group) of the same compound?
A: 99.42 ± 0.9%

Q: What about the “change in blood pressure, heart rate, or blood oxygen saturation” value ([4]; during the time frame of the study, all dose groups) of the same compound?
A: no significant change
